# Laboratory results as given in patent publication US20230413810A1, “SANITISING FORMULATION” (Lumendo AG, priority 2020, published 2023).
# Legend:
# Assay type in all cases: cell-based
# P. aeruginosa = test: Direct contact test on glass plates, Log10 reduction of P. aeruginosa
# [1] = tested on: Staphylococcus aureus (ATCC 6538); test: Direct contact test on glass plates, Log10 reduction of S. aureus (CFU/mL)
# Protocol: The anti-microbial-retaining hydrogel formulation was prepared by the addition of Tetronic® 1107 tetramethacrylate (12.64% w/w), prepared according to Example 6, to glycerol (29.48% w/w). Then triethanolamine (0.84% w/w) was added in water (7.58% w/w), diphenyliodonium hexafluorophosphate (0.067% w/w) and 4-(diphenylphosphino)benzoic acid (0.166% w/w) were added in ethanol (8.16% w/w) and a specified amount of anti-microbial agent was added in PBS buffer ×1 (40.01% w/w). The mixture was placed into a thermoshaker and heated and shaken (50° C., 1200 rpm) for 20 minutes. Next, ethyl (2,4,6-trimethylbenzoyl) phenylphosphinate (0.31% w/w) and eosin Y (0.00125% w/w) were added to the mixture in ethanol (4.01% w/w) and the solution was mixed at room temperature for 20 seconds.
# A 15 mL falcon tube containing 5 mL of BHI medium was inoculated with Staphylococcus aureus (ATCC 6538) and incubated overnight at 37° C. on a shaker (140 rpm). On the next day, a 15 mL falcon tube containing 5 mL BHI medium was inoculated with 100 μL of the overnight culture and incubated at 37° C. for 3.5 hours at 140 rpm.
# Glass plates (18 mm×18 mm) were added with anti-microbial-retaining hydrogel formulation (50 μL) and covered with another glass plate (18 mm×18 mm) in the well of a 6-well plate. Samples were polymerized by the light from the laminar flow hood for 30 minutes. […]
# S. aureus cultures were diluted to an OD600 (optical density at λ=600 nm) of 0.2 and 50 μL added to the glass plates (18 mm×18 mm) covered with the anti-microbial retaining hydrogel formulation of the present invention. Samples were covered with a glass plate (18 mm×18 mm) and incubated at 37° C. for 60 minutes. Bacteria were recovered by addition of 1 mL of BHI medium to each well and manually shaking the plate for 30 seconds. From each solution a four times ten-fold dilution series was prepared, resulting in 5 concentrations (each time adding 20 μL of the previous solution to 180 μL of PBS). A BHI agar plate was divided into 5 sectors and from each dilution, three drops of 10 μL were added to one sector. The plates were incubated overnight at 37° C. From the dilution containing 3-30 colonies, the CFU/mL (colony forming units per mL) were calculated and recorded.
# Samples were prepared as triplicates. As negative controls, glass plates with no hydrogel and with hydrogel but no anti-microbial agent were prepared. As a control group, glass plates were added with stock solutions of the appropriate disinfectant in PBS (50 μL) at the same concentration as in the hydrogel.
# For the washing of samples, the polymerized hydrogel sample was washed with 1 mL PBS solution, after which the PBS solution was removed. The sample was let air dry for 15 minutes before bacterial was then applied as described above.
# [2] = tested on: Staphylococcus aureus (ATCC 6538); test: as above; remark: listed apart in the source
# [3] = modified anti-microbial agents 1% w/w in hydrogel formulation according to Example 22
# [4] = DDAC 0.1% w/w in polymerized hydrogel vs other sanitizing agents on glass surfaces, 0 washes
# [5] = DDAC 0.1% w/w in polymerized hydrogel vs other sanitizing agents on glass surfaces, 5 washes with 1 mL water
# [6] = unmodified anti-microbial agents 0.1% w/w in hydrogel (Sterilium with no hydrogel), 0 washes with 1 mL water
# [7] = unmodified anti-microbial agents 0.1% w/w in hydrogel (Sterilium with no hydrogel), 5 washes with 1 mL water
# [8] = unmodified anti-microbial agents 1.0% w/w in hydrogel (Sterilium with no hydrogel), 0 washes with 1 mL water
# [9] = unmodified anti-microbial agents 1.0% w/w in hydrogel (Sterilium with no hydrogel), 5 washes with 1 mL water
compound,measurement,setting,value
"2-(N,N,N-Cetylmethylbenzylammonium)ethyl methacrylate bromide",Log10 reduction of P. aeruginosa,P. aeruginosa; [3],<1 Log10
same,Log10 reduction of S. aureus,[1]; [3],>2 Log10
"2-(N,N,N-Dodecyldimethylammonium)ethyl methacrylate bromide",Log10 reduction of P. aeruginosa,P. aeruginosa; [3],1 Log10
same,Log10 reduction of S. aureus,[1]; [3],3 Log10
"2-(N,N,N-dodecylmethylbenzylammonium)ethyl methacrylate bromide",Log10 reduction of P. aeruginosa,P. aeruginosa; [3],3 Log10
same,Log10 reduction of S. aureus,[1]; [3],>4 Log10
"9-(N,N,N-Benzylbutylmethylammonium)nonyl methacrylate bromide",Log10 reduction of P. aeruginosa,P. aeruginosa; [3],1 Log10
same,Log10 reduction of S. aureus,[1]; [3],<1 Log10
"12-(N,N,N-Benzylbutylmethylammonium)dodecyl methacrylate bromide",Log10 reduction of P. aeruginosa,P. aeruginosa; [3],1 Log10
same,Log10 reduction of S. aureus,[1]; [3],>4 Log10
"12-(N,N,N-Butyldimethylammonium)dodecyl methacrylate bromide",Log10 reduction of P. aeruginosa,P. aeruginosa; [3],1 Log10
same,Log10 reduction of S. aureus,[1]; [3],>1 Log10
"16-(N,N,N-Benzylbutylmethylammonium)cetyl methacrylate bromide",Log10 reduction of P. aeruginosa,P. aeruginosa; [3],<1 Log10
same,Log10 reduction of S. aureus,[1]; [3],>4 Log10
C=C(C)C(=O)OCCOCC[n+]1ccc(CCCCCCCCCCCCC)cc1.[Cl-] [2-(4-Tridecylpyridin-1-uim)ethoxyethyl methacrylate chloride],Log10 reduction of P. aeruginosa,P. aeruginosa; [3],1 Log10
same,Log10 reduction of S. aureus,[1]; [3],>4 Log10
C=C(C)C(=O)OCCOCC[n+]1ccc(CCCCCCCCCCCCCCCCC)cc1.[Cl-] [2-(4-heptadecylpyridin-1-uim)ethoxyethyl methacrylate chloride],Log10 reduction of P. aeruginosa,P. aeruginosa; [3],<1 Log10
same,Log10 reduction of S. aureus,[1]; [3],>1 Log10
"C=C(C)C(=O)OCCOCC[N+](C)(C)CCCCCCCCCCCCCCCC.[Cl-] [2-(N,N,N-Cetyldimethylammonium)ethoxyethyl methacrylate chloride]",Log10 reduction of P. aeruginosa,P. aeruginosa; [3],>1 Log10
same,Log10 reduction of S. aureus,[1]; [3],>1 Log10
"C=C(C)C(=O)OCC[N+](C)(C)CCOCCOc1ccc(C(C)(C)CC(C)(C)C)cc1.[Cl-] [2-(methacryloyloxy)-N,N-dimethyl-N-(2-(2-(4-(2,4,4-trimethylpentan-2-yl)phenoxy)ethoxy)ethyl)ethan-1-aminium chloride]",Log10 reduction of P. aeruginosa,P. aeruginosa; [3],1 Log10
same,Log10 reduction of S. aureus,"[2]; 1% w/w in hydrogel, 0 washes with 1 mL water",>4 Log10
same,Log10 reduction of S. aureus,"[2]; 1% w/w in hydrogel, 5 washes with 1 mL water",>3 Log10
same,Log10 reduction of S. aureus,"[2]; 1% w/w in hydrogel, 20 washes with 1 mL water",4 Log10
same,Log10 reduction of S. aureus,"[2]; 1% w/w in hydrogel, 2 hours soaking in water",>3 Log10
same,Log10 reduction of S. aureus,[1]; [3],>4 Log10
"CC(C)O [60% Isopropanol, Isopropanol]",Log10 reduction of S. aureus,[2]; [4],>4 Log10
same,Log10 reduction of S. aureus,[2]; [5],<1 Log10
"CCO [70% Ethanol, Ethanol]",Log10 reduction of S. aureus,[2]; [4],>4 Log10
same,Log10 reduction of S. aureus,[2]; [5],<1 Log10
"CC(C)(C)CC(C)(C)c1ccc(OCCOCC[N+](C)(C)Cc2ccccc2)cc1 [Anti-microbial agent on glass surface, benzethonium chloride]",Log10 reduction of S. aureus,"[2]; benzethonium chloride 0.1% w/w, on glass with no hydrogel or in polymerized hydrogel, 0 washes with 1 mL water",>4 Log10
same,Log10 reduction of S. aureus,"[2]; benzethonium chloride 0.1% w/w, on glass with no hydrogel or in polymerized hydrogel, 5 washes with 1 mL water",<1 Log10
same,Log10 reduction of S. aureus,"[2]; benzethonium chloride 0.1% w/w, on glass with no hydrogel or in polymerized hydrogel, 10 washes with 1 mL water",<1 Log10
same,Log10 reduction of S. aureus,"[1]; benzethonium chloride 0.1% w/w, on glass with no hydrogel or in polymerized hydrogel, 20 washes with 1 mL water",<1 Log10
"CC(C)(C)CC(C)(C)c1ccc(OCCOCC[N+](C)(C)Cc2ccccc2)cc1 [Benzethonium chloride, benzethonium chloride]",Log10 reduction of S. aureus,"[2]; 0.1% w/w in hydrogel (Example 28), 0 washes with 1 mL water",2 Log10
same,Log10 reduction of S. aureus,"[2]; 0.1% w/w in hydrogel (Example 28), 5 washes with 1 mL water",3 Log10
same,Log10 reduction of S. aureus,"[2]; 0.1% w/w in hydrogel (Example 28), 2 hours soaking in water",3 Log10
same,Log10 reduction of S. aureus,[2]; [6],2 Log10
same,Log10 reduction of S. aureus,[2]; [7],3 Log10
same,Log10 reduction of S. aureus,"[1]; 0.1% w/w in hydrogel (Example 28), 20 washes with 1 mL water",2 Log10
N=C(NCCCCCCNC(=N)NC(=N)Nc1ccc(Cl)cc1)NC(=N)Nc1ccc(Cl)cc1 [Chlorohexidine],Log10 reduction of P. aeruginosa,P. aeruginosa; [8],>2 Log10
same,Log10 reduction of P. aeruginosa,P. aeruginosa; [9],>4 Log10
same,Log10 reduction of S. aureus,[2]; [6],>4 Log10
same,Log10 reduction of S. aureus,[2]; [7],>4 Log10
"CCCCCCCCCC[N+](C)(C)CCCCCCCCCC.[Cl-] [Didecyldimethylammonium chloride, didecyldimethylammonium chloride]",Log10 reduction of P. aeruginosa,P. aeruginosa; [8],2 Log10
same,Log10 reduction of P. aeruginosa,P. aeruginosa; [9],>4 Log10
same,Log10 reduction of S. aureus,[2]; [6],>3 Log10
same,Log10 reduction of S. aureus,[2]; [7],>4 Log10
Benzalkonium chloride,Log10 reduction of P. aeruginosa,P. aeruginosa; [8],>1 Log10
same,Log10 reduction of P. aeruginosa,P. aeruginosa; [9],>4 Log10
same,Log10 reduction of S. aureus,[2]; [6],2 Log10
same,Log10 reduction of S. aureus,[2]; [7],>4 Log10
